Patent publication US20050101595A1, “N-containing cycloalkyl-substituted amino-thiazole derivatives and pharmaceutical compositions for inhibiting cell proliferation and methods for their use” (PFIZER INC., priority 2003, published 2005)
Structures can show the parent of a compound that is named as a salt. Where two headings read alike, the source gives them in different places.

Columns and labels:
HCT-116 cell line = test: Inhibition of cell growth, tetrazolium salt (MTT) assay; type: cell-based; settings: for IC50: Homo sapiens, HCT-116, 120 h, MTT, three to five days, read-out: HCT-116 IC50; for HCT-116 % Inhibition at 0.25 μM: 0.25 μM compound
In short: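 HCT-116 cells in McCoy's 5A medium received compound 4 h after plating (0.5% v/v DMSO) and were incubated three to five days at 37° C, 5% CO2. MTT (0.2 mg/mL final) then added for 4 h; DMSO-solubilized formazan read at 540 nm against 0.5% DMSO-treated controls.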

CDK2/Cyclin A = CDK2/Cyclin A (Homo sapiens, UniProt P24941); test: Inhibition of CDK2/Cyclin A Retinoblastoma Kinase Activity; type: biochemical; settings: for Ki: apparent Ki, CDK2/proteolyzed cyclin A, Rb fragment substrate, 25 μM ATP
In short: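 Radiometric filter-binding readout of phosphate transfer to an Rb substrate fragment by purified CDK2/truncated cyclin A at 10 or 19 nM. Run at pH 7.4 with 25 μM ATP, 30 °C, 60–75 min, linear rates; background without enzyme subtracted, Ki from competitive-inhibition models.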

[1] = target: human CDK4 and genetically truncated (1-264) cyclin D3 (Homo sapiens, UniProt P11802); test: Inhibition of CDK4/Cyclin D Retinoblastoma Kinase Activity; type: biochemical; settings: for Ki: apparent Ki, CDK4/truncated cyclin D3, Rb fragment substrate, 25 μM ATP
In short: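 Apparent Ki values come from competitive or competitive tight-binding inhibition fits of background-corrected 32P/33P incorporation into His-tagged Rb fragment (386-928), captured on nitrocellulose. Reaction: 5 nM insect-cell-expressed human CDK4 with cyclin D3 (1-264), 25 μM ATP, pH 7.4 HEPES, 2% DMSO, 30° C., 20 min, extended to 60 min for tight-binding inhibitors.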

[2] = 0.1 μM compound, HCT-116, Table 4

human CDK4 and genetically truncated (1-264) cyclin D3, sequence (P11802 whole entry, the tested form may be a part): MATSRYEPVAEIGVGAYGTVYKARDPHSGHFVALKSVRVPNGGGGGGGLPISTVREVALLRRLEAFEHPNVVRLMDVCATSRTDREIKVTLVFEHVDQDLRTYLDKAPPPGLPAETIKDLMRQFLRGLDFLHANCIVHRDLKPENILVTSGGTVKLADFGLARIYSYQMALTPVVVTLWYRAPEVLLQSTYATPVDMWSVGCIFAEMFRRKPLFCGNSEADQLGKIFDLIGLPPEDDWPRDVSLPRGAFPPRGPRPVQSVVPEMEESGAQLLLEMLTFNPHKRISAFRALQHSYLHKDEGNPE
human CDK4 and genetically truncated (1-264) cyclin D3, sequence (P30281 1-264 partner): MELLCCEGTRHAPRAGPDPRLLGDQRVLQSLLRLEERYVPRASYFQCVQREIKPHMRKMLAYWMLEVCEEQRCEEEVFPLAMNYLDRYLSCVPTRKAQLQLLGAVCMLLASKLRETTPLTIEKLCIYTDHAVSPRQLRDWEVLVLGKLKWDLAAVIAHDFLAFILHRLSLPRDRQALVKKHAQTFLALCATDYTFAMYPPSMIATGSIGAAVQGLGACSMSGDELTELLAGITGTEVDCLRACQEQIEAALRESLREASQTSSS

Row | CDK2 % Inhibition at 0.03 μM (CDK2/Cyclin A; at 0.03 μM) [%] | CDK4 % Inhibition at 0.03 μM ([1]; at 0.03 μM) [%] | IC50 (HCT-116 cell line; first HCT-116 column (c4)) [nM] | IC50 (HCT-116 cell line; second HCT-116 column (c5)) [nM] | Ki (CDK2/Cyclin A) [nM] | Ki [1] [nM] | SMILES | HCT-116 % Inhibition at 0.1 μM (HCT-116 cell line; HCT-116 cells, at 0.1 μM) [%] | HCT-116 5 Inhibition at 0.25 μM (HCT-116 cell line; HCT-116 cells) | other results
1 | – | – | 240 | 1400 | 0.41 | 0.72 | Cc1c[nH]c(-c2ccc(S(=O)(=O)N3CCC(Nc4nc(N)c(C(=O)c5c(F)cccc5F)s4)CC3)cn2)n1 [Example I2, 1-(4-Amino-2-{1-[6-(4-methyl-1H-imidazol-2-yl)-pyridine-3-sulfonyl]-piperidin-4-ylamino}-thiazol-5-yl)-1-(2,6-difluoro-phenyl)-methanone Hydrochloride] | – | – | –
2 | 55 | 73 | – | – | – | – | COc1cc(OC)cc(C(=O)N2CCC(Nc3nc(N)c(C(=O)c4c(F)cccc4F)s3)CC2)c1 [Example R137] | 0 | 38 | –
3 | −11 | 13 | – | – | – | – | COc1ccc(C(=O)N2CCC(Nc3nc(N)c(C(=O)c4c(F)cccc4F)s3)CC2)c(OC)c1 [Example R8] | 8 | 41 | –
4 | 37 | 54 | – | – | – | – | CCSc1ncccc1C(=O)N1CCC(Nc2nc(N)c(C(=O)c3c(F)cccc3F)s2)CC1 [Example R19] | 0 | 46 | –
5 | 45 | 67 | – | – | – | – | COc1cc(C(=O)N2CCC(Nc3nc(N)c(C(=O)c4c(F)cccc4F)s3)CC2)ccc1C [Example R155] | 0 | 67 | –
6 | – | – | 290 | 620 | 0.85 | 0.48 | CN(C)CCN(C)c1ncc(S(=O)(=O)N2CCC(Nc3nc(N)c(C(=O)c4c(F)cccc4F)s3)CC2)cc1Br [Example G24, 1-[4-Amino-2-(1-{5-bromo-6-[(2-dimethylamino-ethyl)-methyl-amino]-pyridine-3-sulfonyl}-piperidin-4-ylamino)-thiazol-5-yl]-1-(2,6-difluoro-phenyl)-methanone] | – | – | –

The remaining lines, values behind:

Row | SMILES | CDK2 % Inhibition at 0.03 μM (CDK2/Cyclin A; at 0.03 μM) [%] | CDK4 % Inhibition at 0.03 μM ([1]; at 0.03 μM) [%] | IC50 (HCT-116 cell line; first HCT-116 column (c4)) [nM] | IC50 (HCT-116 cell line; second HCT-116 column (c5)) [nM] | Ki (CDK2/Cyclin A) [nM] | Ki [1] [nM] | HCT-116 % Inhibition at 0.1 μM (HCT-116 cell line; HCT-116 cells, at 0.1 μM) [%] | HCT-116 5 Inhibition at 0.25 μM (HCT-116 cell line; HCT-116 cells) | other results
7 | Cc1ccc(Sc2ncccc2C(=O)N2CCC(Nc3nc(N)c(C(=O)c4c(F)cccc4F)s3)CC2)cc1 [Example R42] | 49 | 53 | – | – | – | – | 0 | 48 | –
8 | Nc1nc(NC2CCN(C(=O)c3ccccc3)CC2)sc1C(=O)c1c(F)cccc1F [Example Q9] | – | – | – | – | – | – | – | – | HCT-116 % Inhibition at 0.1 μM (HCT-116 cell line; [2]): 0%; HCT-116 % Inhibition at 0.25 μM (HCT-116 cell line; HCT-116, Table 4): 36%; CDK2 % Inhibition at 0.03 μM (CDK2/Cyclin A; 0.03 μM compound, Table 4): 13%; CDK4 % Inhibition at 0.03 μM ([1]; 0.03 μM compound, Table 4): 52%
9 | Nc1nc(NC2CCN(S(=O)(=O)c3ccc(Cl)cc3)CC2)sc1C(=O)c1c(F)cccc1F [Example P14] | – | – | – | – | – | – | – | – | HCT-116 % Inhibition at 0.1 μM (HCT-116 cell line; 0.1 μM compound, HCT-116, Table 3): 23%; HCT-116 % Inhibition at 0.25 μM (HCT-116 cell line; HCT-116, Table 3): 25%; CDK2 % Inhibition at 0.03 μM (CDK2/Cyclin A; 0.03 μM compound, Table 3): 60%; CDK4 % Inhibition at 0.03 μM ([1]; 0.03 μM compound, Table 3): 67%
10 | CN(CCS(=O)(=O)N1CCC(Nc2nc(N)c(C(=O)c3c(F)cccc3F)s2)CC1)C1CCCC1 [Example K30, (4-Amino-2-{1-[2-(cyclopentyl-methyl-amino)-ethanesulfonyl]-piperidin-4-ylamino}-thiazol-5-yl)-(2,6-difluoro-phenyl)-methanone Trifluoroacetic Acid Salt.] | – | – | 190 | 620 | 9.4 | 2.4 | – | – | –
11 | Nc1nc(NC2CCN(S(=O)(=O)c3ccc(CCN4CCC[C@H]4CO)nc3)CC2)sc1C(=O)c1c(F)cccc1F [Example N9, [4-Amino-2-(1-{6-[2-(2S-hydroxymethyl-pyrrolidin-1-yl)-ethyl]-pyridine-3-sulfonyl}-piperidin-4-ylamino)-thiazol-5-yl]-(2,6-difluoro-phenyl)-methanone Hydrochloride Salt.] | – | – | 70 | 700 | 0.8 | 0.26 | – | – | –
12 | Nc1nc(NC2CCN(C(=O)c3ccc(-c4ccccc4)cc3)CC2)sc1C(=O)c1c(F)cccc1F [Example Q32] | – | – | – | – | – | – | – | – | HCT-116 % Inhibition at 0.1 μM (HCT-116 cell line; [2]): 13%; HCT-116 % Inhibition at 0.25 μM (HCT-116 cell line; HCT-116, Table 4): 54%; CDK2 % Inhibition at 0.03 μM (CDK2/Cyclin A; 0.03 μM compound, Table 4): −11%; CDK4 % Inhibition at 0.03 μM ([1]; 0.03 μM compound, Table 4): 15%
13 | Nc1nc(NC2CCN(S(=O)(=O)CCCN3CC=CC3)CC2)sc1C(=O)c1c(F)cccc1F [Example K9, 1-(4-Amino-2-{1-[3-(2,5-dihydropyrrol-1-yl)propane-1-sulfonyl]-piperidin-4-ylamino}-thiazol-5-yl)-1-(2,6-difluoro-phenyl)-methanone.] | – | – | 90 | 930 | < 1.3 | 1.6 | – | – | –
